Patent US20250367185A1, “TRANSLESION SYNTHESIS POLYMERASE INHIBITORS AND USES THEREOF” (THE UNIVERSITY OF VERMONT AND STATE AGRICULTURAL COLLEGE, priority 2022, published 2025)

Legend:
Assay type in all cases: cell-based
[1] = test system: p62 and LC3 in SARS-COV-2 infected cells
[2] = test system: DDR, TLS, and DNA repair genes in A549-ACE2+ cells
[3] = test system: SARS-CoV-2 infected A549-ACE2+ cells
Dengue virus = Dengue virus viral load in infected A549-ACE2+ cells; conditions: 10 μM, compared to non-treated cells, data at 24 hours, 48 hours and 5 days post-infection
Procedure: FIG. 2 is a graph showing the relative reduction of mRNA in untreated A549-ACE2+ cells (“Not Treated”) and in cells post-treatment with Compound 1 (“JH Treated”) at 24 and 48 hours post-infection with Dengue virus.
FIG. 3 is a graph showing the relative reduction of mRNA in untreated A549-ACE2+ cells and cells post treatment with Compound 1 (“JH Treated”) or untreated (“Not Treated”) 5 days post-infection with Dengue virus.
Compound 1 (10 μM) was administered to A549-ACE2+ cells infected with Dengue virus and the resulting viral loads were measured (FIGS. 2 and 3). Compared to non-treated cells, those treated with Compound 1 suppressed Dengue virus by 77-fold. Data is shown 24 hours, 48 hours, and 5 days post-infection (PI).

SARS-COV-2 = SARS-COV-2 proliferation in cell lines, relative mRNA content
[4] = test system: A549-ACE2+ cells infected with SARS-COV-2; experiment: Microsatellite instability (MSI) in SARS-COV-2 infected cells
[5] = test system: gH2AX in SARS-CoV-2 infected A549-ACE2+ cells; experiment: gH2AX expression in SARS-CoV-2 infected cells; conditions: SARS-CoV-2 infected A549-ACE2+ cells at 48 hours
Procedure: Next, whether other genome instability markers were also repressed by the Compound 1 treatment in SARS-COV-2 infected cells was examined. Compound 1 treatment of the A549-ACE2+ cells suppressed transcript expression of all the DDR, TLS, and DNA repair genes. Likewise, the enhanced expression of gH2AX in SARS-CoV-2 infected A549-ACE2+ cells at 48 hours was suppressed by up to 40-fold post-Compound 1 treatment.

## CC(C)CC(=O)c1c(Nc2ccc(C(=O)O)cc2Cl)[nH]c2c(Cl)ccc([N+](=O)[O-])c2c1=O [Compound 1, 3-chloro-4-((8-chloro-3-(3-methylbutanoyl)-5-nitro-4-oxo-1,4-dihydroquinolin-2-yl)amino)benzoic acid]
[1]
  expression of LC3: significantly increases
  expression of p62: significantly increases
[2]
  transcript expression of all the DDR, TLS, and DNA repair genes: suppressed
[3]
  rescue of telomere instability: did not rescue
Dengue virus
  suppression of Dengue virus (viral load): 77 fold
SARS-COV-2; A549-ACE2+ cells
  proliferation of SARS-COV-2, relative mRNA content in cells: directly suppress
SARS-COV-2; Calu-3 cells
  proliferation of SARS-COV-2, relative mRNA content in cells: directly suppress
SARS-COV-2; Vero cells
  proliferation of SARS-COV-2, relative mRNA content in cells: directly suppress
[4]
  SARS-COV-2-dependent MSI: suppress
[5]
  suppression of enhanced gH2AX expression: up to 40 fold
